Data as given in article PMC9569940, “Discovery and In Vivo Efficacy of Trace Amine-Associated Receptor 1 (TAAR1) Agonist 4-(2-Aminoethyl)-N-(3,5-dimethylphenyl)piperidine-1-carboxamide Hydrochloride (AP163) for the Treatment of Psychotic Disorders” (International Journal of Molecular Sciences, 2022).
“Also recorded” adds a separate entry of the source. Structures can show the parent of a compound that is named as a salt.

Legend:
TAAR1 = biological target: T1, TAAR1 (Homo sapiens, UniProt Q96RJ0); assay: BRET cAMP biosensor (EPAC) assay of TAAR1 agonistic activity in transiently transfected HEK-293 cells; assay type: cell-based; set-up: key to Agonistic Activity (class Inactive): Inactive: Producing less than 20% activation of TAAR1 relative to 1 μM tyramine hydrochloride; conditions: for EC50 / EC50, μM: TAAR1 agonistic activity, concentration-response; for Agonistic Activity at 1 μM, %: compound at 1 μM; for Agonistic Activity at 1 μM, % / activation at 10 µM: compared to 1 μM tyramine hydrochloride (positive control), primary screening; for TAAR1 Activity (active / inactive, in words): agonistic activity in words; for Agonistic Activity (class Inactive): primary screening at 1 μM or 10 μM, relative to 1 μM tyramine hydrochloride; for activation at 10 µM: HEK293, compound at 10 μM (footnote c)
T1 construct: expressed in transfected cells; host or cells: HEK-293 cells, transient transfection
T1 sequence (Q96RJ0 1-339): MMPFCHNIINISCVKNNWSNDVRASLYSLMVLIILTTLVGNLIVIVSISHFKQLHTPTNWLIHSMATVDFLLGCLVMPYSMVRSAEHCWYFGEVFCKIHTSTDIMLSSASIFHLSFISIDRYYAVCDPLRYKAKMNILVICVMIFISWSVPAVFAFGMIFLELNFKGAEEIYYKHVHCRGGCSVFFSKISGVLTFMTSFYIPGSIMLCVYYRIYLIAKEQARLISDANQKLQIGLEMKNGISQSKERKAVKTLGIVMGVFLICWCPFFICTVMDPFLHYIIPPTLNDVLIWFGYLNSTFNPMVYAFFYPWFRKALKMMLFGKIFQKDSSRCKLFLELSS
Description: Compounds 7–29 synthesized as described above (as well the initial hit compound 1 used as a comparator) were tested in the Bioluminescence Resonance Energy Transfer approach (BRET) assay using HEK-293 cells transiently transfected with cDNA for TAARs as well as cAMP BRET biosensor (EPAC) protein. The compounds were initially tested at 1 μM or 10 μM concentrations and those producing <20% activation of TAAR1 (relative to 1 μM tyramine hydrochloride) were not pursued further. The active compounds were further evaluated in a dose–response mode in order to determine their EC50 values.
The Bioluminescence Resonance Energy Transfer approach (BRET) has been used for functional activity experiments. HEK-293 cells were transiently transfected with cDNA for TAARs and cAMP BRET biosensor (EPAC) protein and then plated in a 96-well plate as described. All compounds were tested at the initial concentrations of 1 μM or 10 μM. Then, for active compounds, a concentration–response analysis was performed in order to calculate the EC50 values. Natural agonist of TAAR1 tyramine hydrochloride was used as a positive control.

[1] = test system: dopamine transporter knockout (DAT-KO) rats; assay: DAT-KO rat hyperlocomotion test; assay type: in vivo; conditions: for Reduction in hyperlocomotion of DAT-KO rats: i.p., 90 min locomotion test, dose range 5–15 mg/kg for 18
Description: Compounds 9, 17–19 were evaluated in dopamine transporter knockout (DAT-KO) rats characterized with psychosis-like hyperlocomotion activity. The ability of compounds to reduce the hyperlocomotion in these genetically modified animals generally deemed as an adequate model of psychosis-like states and schizophrenia was expected to unveil the potential of these compounds as potential therapies for these psychiatric disorders.
Twelve Wistar dopamine transporter knockout (DAT-KO) female rats were utilized for assessment of drugs’ activity on hyperlocomotion. Animals were maintained on a 12/12 light/dark cycle at the room temperature maintained between 20 °C and 23 °C with a relative humidity maintained between 30% and 70%. Chow and water were provided ad libitum for the duration of the studies.
All compounds were dissolved in physiological saline (0.9% solution of NaCl) and intraperitoneally injected in volume 10 mL/kg immediately before locomotion testing.
Rats were intraperitoneally injected with a compound solution or vehicle (saline) and were immediately placed in Plexiglas boxes 40 cm × 40 cm × 40 cm for 90 min. Noldus EthoVision software was used to measure the distance moved by the animals.

Solubility = assay type: physicochemical; conditions: reason for not progressing to in vivo tests

Row | Structure (SMILES) | EC50 (TAAR1) [nM] | Agonistic Activity (class Inactive) (TAAR1) | activation at 10 µM (TAAR1) [%] | also measured
1 | Cl.NCCC1CCN(C(=O)Nc2ccccc2)CC1 [Compound 1, 4-(2-Aminoethyl)-N-phenylpiperidine-1-carboxamide hydrochloride] | 507 | – | – | Agonistic Activity at 1 μM, % (TAAR1): 65%
2 | Cc1ccc(NC(=O)N2CCC(CCN)CC2)cc1.Cl [Compound 7, 4-(2-Aminoethyl)-N-(4-methylphenyl)piperidine-1-carboxamide hydrochloride] | – | Inactive ^b | – | TAAR1 Activity (active / inactive, in words) (TAAR1): Inactive
3 | Cl.NCCC1CCN(C(=O)Nc2cccc(F)c2)CC1 [Compound 8, 4-(2-Aminoethyl)-N-(3-fluorophenyl)piperidine-1-carboxamide hydrochloride] | – | Inactive | – | –
4 | Cc1cccc(NC(=O)N2CCC(CCN)CC2)c1.Cl [Compound 9, 4-(2-Aminoethyl)-N-(3-methylphenyl)piperidine-1-carboxamide hydrochloride] | 52 | – | – | TAAR1 Activity (active / inactive, in words) (TAAR1): Active; Agonistic Activity at 1 μM, % (TAAR1): 89%; Reduction in hyperlocomotion of DAT-KO rats [1]: absence of in vivo efficacy
5 | Cc1ccccc1NC(=O)N1CCC(CCN)CC1.Cl [Compound 10, 4-(2-Aminoethyl)-N-(2-methylphenyl)piperidine-1-carboxamide hydrochloride] | – | Inactive | – | TAAR1 Activity (active / inactive, in words) (TAAR1): Inactive
6 | Cl.NCCC1CCN(C(=O)Nc2ccc(F)cc2)CC1 [Compound 11, 4-(2-Aminoethyl)-N-(4-fluorophenyl)piperidine-1-carboxamide hydrochloride] | 206 | – | – | EC50, μM (TAAR1): submicromolar; Agonistic Activity at 1 μM, % (TAAR1): 84%
7 | Cl.NCCC1CCN(C(=O)Nc2cc(F)ccc2F)CC1 [Compound 12, 4-(2-Aminoethyl)-N-(2,5-difluorophenyl)piperidine-1-carboxamide hydrochloride] | 273 | – | – | TAAR1 Activity (active / inactive, in words) (TAAR1): Active; Agonistic Activity at 1 μM, % (TAAR1): 75%
8 | Cl.NCCC1CCN(C(=O)Nc2ccc(F)cc2F)CC1 [Compound 13, 4-(2-Aminoethyl)-N-(2,4-difluorophenyl)piperidine-1-carboxamide hydrochloride] | – | Inactive | – | TAAR1 Activity (active / inactive, in words) (TAAR1): Inactive
9 | Cl.NCCC1CCN(C(=O)Nc2cc(F)cc(F)c2)CC1 [Compound 14, 4-(2-Aminoethyl)-N-(3,5-difluorophenyl)piperidine-1-carboxamide hydrochloride] | – | Inactive | – | TAAR1 Activity (active / inactive, in words) (TAAR1): Inactive
10 | Cc1ccc(NC(=O)N2CCC(CCN)CC2)cc1F.Cl [Compound 15, 4-(2-Aminoethyl)-N-(3-fluoro-4-methylphenyl)piperidine-1-carboxamide hydrochloride] | – | Inactive | – | EC50, μM (TAAR1): inactive
11 | Cc1cc(NC(=O)N2CCC(CCN)CC2)ccc1F [Compound 16, 4-(2-Aminoethyl)-N-(4-fluoro-3-methylphenyl)piperidine-1-carboxamide hydrochloride] | 143 | – | 107 | –
12 | Cc1ccc(NC(=O)N2CCC(CCN)CC2)cc1C.Cl [Compound 17, 4-(2-Aminoethyl)-N-(3,4-dimethylphenyl)piperidine-1-carboxamide hydrochloride] | 33 | – | 84 | Reduction in hyperlocomotion of DAT-KO rats [1]: absence of in vivo efficacy
13 | Cc1cc(C)cc(NC(=O)N2CCC(CCN)CC2)c1.Cl [Compound 18, 4-(2-Aminoethyl)-N-(3,5-dimethylphenyl)piperidine-1-carboxamide hydrochloride] | 112 | – | 85 | Effect on DAT-KO hyperlocomotion at 5 mg/kg ([1]; 5 mg/kg i.p., dynamics for 90 min, two-way ANOVA): did not reveal significant effect; Effect on DAT-KO hyperlocomotion at 10 mg/kg ([1]; 10 mg/kg i.p., 90 min, two-way ANOVA): significantly decreased hyperlocomotion; Effect on DAT-KO hyperlocomotion at 15 mg/kg ([1]; 15 mg/kg i.p., 90 min, two-way ANOVA): significantly decreased DAT-KO hyperlocomotion; Reduction in hyperlocomotion of DAT-KO rats ([1]; listed as 18 (AP163)): statistically significant, dose-dependent reduction; also recorded: significantly attenuated DAT-KO hyperlocomotion; Reduction in hyperlocomotion of DAT-KO rats ([1]; listed as AP163): statistically significant and dose-dependent reduction in hyperlocomotion
14 | Cc1ccc(C)c(NC(=O)N2CCC(CCN)CC2)c1.Cl [Compound 19, 4-(2-Aminoethyl)-N-(2,5-dimethylphenyl)piperidine-1-carboxamide hydrochloride] | 42 | – | 80 | Reduction in hyperlocomotion of DAT-KO rats [1]: absence of in vivo efficacy
15 | Cc1cccc(NC(=O)N2CCC(CCN)CC2)c1C [Compound 20, 4-(2-Aminoethyl)-N-(2,3-dimethylphenyl)piperidine-1-carboxamide hydrochloride] | 914 | – | 82 | –
16 | Cl.NCCC1CCN(C(=O)Nc2cccc(C(F)(F)F)c2)CC1 [Compound 21, 4-(2-Aminoethyl)-N-(3-(trifluoromethyl)phenyl)piperidine-1-carboxamide hydrochloride] | 35 | – | 96 | Solubility (Solubility): poor solubility
17 | COc1ccc(C)cc1NC(=O)N1CCC(CCN)CC1 [Compound 22, 4-(2-Aminoethyl)-N-(2-methoxy-5-methylphenyl)piperidine-1-carboxamide hydrochloride] | 1900 | – | 84 | –
18 | Cl.NCCC1CCN(C(=O)Nc2cccc(Cl)c2)CC1 [Compound 23, 4-(2-Aminoethyl)-N-(3-chlorophenyl)piperidine-1-carboxamide hydrochloride] | – | Inactive | – | –
19 | NCCC1CCN(C(=O)c2ccccc2)CC1 [Compound 24, (4-(2-Aminoethyl)piperidin-1-yl)(phenyl)methanone hydrochloride] | 635 | – | 31 | –
20 | Cc1cccc(C(=O)N2CCC(CCN)CC2)c1 [Compound 25, (4-(2-Aminoethyl)piperidin-1-yl)(m-tolyl)methanone] | 634 | – | 41 | –
21 | Cl.NCCC1CCN(S(=O)(=O)c2ccccc2)CC1 [Compound 26, 2-[1-(Phenylsulfonyl)piperidin-4-yl]ethanamine hydrochloride] | – | Inactive | – | –
22 | Cl.NCCC1CCN(S(=O)(=O)c2ccc(F)cc2)CC1 [Compound 27, 2-{1-[(4-Fluorophenyl)sulfonyl]piperidin-4-yl}ethanamine hydrochloride] | – | Inactive | – | –
23 | Cc1ccc(S(=O)(=O)N2CCC(CCN)CC2)cc1.Cl [Compound 28, 2-{1-[(4-Methylphenyl)sulfonyl]piperidin-4-yl}ethanamine hydrochloride] | – | Inactive | – | –
24 | CN1CCC(CCN)CC1.Cl.Cl [Compound 29, 2-(1-Methylpiperidin-4-yl)ethan-1-amine dihydrochloride] | – | Inactive | – | TAAR1 Activity (active / inactive, in words) (TAAR1): inactivity
